Measured values as given in US9879243B2, “Culture medium for cell growth and transfection” (LIFE TECHNOLOGIES CORPORATION, priority 2001, dated 2018).

How the values were obtained:
CHO cells = experiment: Effect of replacement compounds on the growth of CHO cells in CD CHO medium without transferrin, three passages; assay type: cell-based, Chinese hamster; settings: third passage
Protocol: The ability of replacement compounds to support cellular growth in the absence of transferrin was evaluated using CHO cells maintained in CD CHO medium (Invitrogen Corporation, Carlsbad, Calif., the formulation of which is described in WO 98/08934). Stock cultures containing 5 μg/mL human holo-transferrin were prepared in CD CHO medium. For replacement compound evaluation, CHO cells were established in 125 mL shaker flasks at an initial viable seeding density of 1×10^5 cells/mL in a final volume of 20 mL. All cultures were maintained at 37° C. in humidified air containing 8% CO2. To eliminate transferrin carry-over effects, cells were subcultured at 4 day intervals for a total of three passages. Positive control cultures contained 5 μg/mL human holo-transferrin while negative control cultures were established in the absence of either transferrin or replacement compound. Replacement compound stocks were prepared at 0.1M-0.2M in ddH2O and solubilized when necessary using 5N NaOH or HCl. Iron complexes were established using 0.2M replacement compound and iron stocks mixed 1:1 (v/v) and incubated for 5-10 minutes at 22° C. All solutions containing replacement compounds were filter sterilized using a 0.22 μm Millex-GV filter prior to addition to transferrin and serum-free media.
(§1) Except where noted, replacement compounds were evaluated either alone or in combination with ferric chloride or ferrous sulfate at 25 μM, 50 μM and 100 μM. Values in the table represent the mean percentage of control growth for duplicate cultures determined at the third passage.
The ability of various replacement compounds to substitute for transferrin in the culture of CHO cells was determined. When added to the medium formulation un-complexed, the replacement compound is listed alone, when added as a complex with a transition metal, the source of the transition metal is listed with the metal binding compound.

Sp2/0 cells = experiment: Effect of replacement compounds on the growth of Sp2/0 cells in CD Hybridoma medium without transferrin, three passages; assay type: cell-based; settings: third passage
Protocol: The ability of replacement compounds to support cellular growth in the absence of transferrin was evaluated using Sp2/0 cells maintained in CD Hybridoma medium (Invitrogen Corporation, Carlsbad, Calif.).
Stock cultures containing 5 μg/mL human holo-transferrin were prepared in CD Hybridoma medium. For replacement compound evaluation, Sp2/0 cells were established at an initial viable cell density of 0.5×10^5 cells/mL in stationary culture using 75 cm^2 tissue culture flasks in a final volume of 20 mL. All cultures were maintained at 37° C. in humidified air containing 8% CO2. To eliminate transferrin carry-over effects, cells were subcultured at the same seeding density at 4 day intervals for a total of three passages. Positive control cultures contained 5 μg/mL human holo-transferrin while negative control cultures were established in the absence of either transferrin or replacement compound. Replacement compound stocks were prepared at 0.1M-0.2M in ddH2O and solubilized when necessary using 5N NaOH or HCl. Iron complexes were established using 0.2M replacement compound and iron stocks mixed 1:1 (v/v) and incubated for 5-10 minutes at 22° C. All solutions containing replacement compounds were filter sterilized using a 0.22 μm Millex-GV filter prior to addition to transferrin and serum-free media.
Except where otherwise noted, replacement compounds were evaluated either alone or in combination with ferric chloride or ferrous sulfate at 25 μM, 50 μM and 100 μM. Values in the table represent the mean percentage of control growth for duplicate cultures determined at the third passage.
When added to the medium formulation un-complexed, the replacement compound is listed alone, when added as a complex with a transition metal, the source of the transition metal is listed with the replacement compound.

293 cells = experiment: Effect of replacement compounds on the growth of 293 cells in 293 SFM without transferrin, three passages; assay type: cell-based, human; settings: third passage, control 5 μg/mL human holo-transferrin
Protocol: Semi-confluent adherent cultures of 293 Cells (ATCC, CRL 1573) are readily adapted to suspension culture. The cells are first detached with a solution of Trypsin-EDTA (0.05% Trypsin, 0.53 mM Na4EDTA), and then resuspended in conventional medium supplemented with 10% FBS to inhibit the trypsin. The resuspended cells are centrifuged at 200×g for five minutes.
The initial seeding density of the 293 cells after conversion to suspension culture is 1×10^6 cells/mL. The cells are shaken on a rotary shaker at 150 rpm in a 37° C. incubator equilibrated with 8% CO2-92% air. […] Because 293 cells have a tendency to aggregate, the cells can be vortexed vigorously for approximately 45 seconds to obtain a predominantly single cell suspension at the time of passaging and counting. After several passages in suspension culture, the maximum achievable density can be determined.
For replacement compound evaluation, 293 cells were established in 125 mL shaker flasks at an initial viable seeding density of 2×10^5 cells/mL in a final volume of 20 mL. All cultures were maintained at 37° C. in humidified air containing 8% CO2. To eliminate transferrin carry-over effects, cells were subcultured at 4 day intervals for a total of three passages. At each subculturing, cells were seeded at a density of 2×10^5 cells/mL. Positive control cultures contained 5 μg/mL human holo-transferrin while negative control cultures were established in the absence of either transferrin or replacement compound. Replacement compound stocks were prepared at 0.1M-0.2M in ddH2O and solubilized when necessary using 5N NaOH or HCl. Iron complexes were established using 0.2 M replacement compound and iron stocks mixed 1:1 (v/v) and incubated for 5-10 minutes at 22° C. All solutions containing replacement compounds were filter sterilized using a 0.22 μm Millex-GV filter prior to addition to transferrin and serum-free media.
as §1, with “μM. When used in combination, the replacement compounds were used in equimolar concentration with iron ions.” for “μM.”, “Table 4” for “the table”
When added to the medium formulation uncomplexed, the replacement compound is listed alone, when added as a complex with a transition metal, the source of the transition metal is listed with the replacement compound.

[1] = 25 μM, control 5 μg/mL human holo-transferrin
[2] = 25 μM, iron equimolar where combined

Molecule	mean percentage of control growth (CHO cells; [1])	mean percentage of control growth (CHO cells; 50 μM)	mean percentage of control growth (CHO cells; 100 μM)	mean percentage of control growth (Sp2/0 cells; [1])	mean percentage of control growth (Sp2/0 cells; 50 μM)	mean percentage of control growth (Sp2/0 cells; 100 μM)	mean percentage of control growth (293 cells; [2])	mean percentage of control growth (293 cells; 50 μM)	mean percentage of control growth (293 cells; 100 μM)
4-Pyridoxic Acid•Ferric Chloride	55 percentage of control growth	63 percentage of control growth	100 percentage of control growth	40 percentage of control growth	73 percentage of control growth	76 percentage of control growth	109 percentage of control growth	85 percentage of control growth	99 percentage of control growth
O=C(O)c1ccccn1.[Cl][Fe]([Cl])[Cl] [2-Pyridinecarboxylic Acid•Ferric Chloride]	88 percentage of control growth	89 percentage of control growth	100 percentage of control growth	0 percentage of control growth	30 percentage of control growth	48 percentage of control growth			
[Cl][Fe]([Cl])[Cl].[O-][n+]1cccc(O)c1 [3-Hydroxypyridine-N-Oxide•Ferric Chloride]	77 percentage of control growth	66 percentage of control growth	101 percentage of control growth	55 percentage of control growth	54 percentage of control growth	57 percentage of control growth	77 percentage of control growth	72 percentage of control growth	81 percentage of control growth
O=c1cc(CO)occ1O [Kojic Acid]	0 percentage of control growth	0 percentage of control growth	0 percentage of control growth	0 percentage of control growth	0 percentage of control growth	0 percentage of control growth			
Cysteine•Ferrous Sulfate	83 percentage of control growth	64 percentage of control growth	45 percentage of control growth	85 percentage of control growth	79 percentage of control growth	67 percentage of control growth			
Kojic Acid•Ferric Chloride	89 percentage of control growth	88 percentage of control growth	85 percentage of control growth	0 percentage of control growth	0 percentage of control growth	0 percentage of control growth			
Nicotinic Acid-N-Oxide•Ferric Chloride	60 percentage of control growth	84 percentage of control growth	105 percentage of control growth				104 percentage of control growth	80 percentage of control growth	79 percentage of control growth
Serine Hydroxamate•Ferric Chloride	106 percentage of control growth	121 percentage of control growth	124 percentage of control growth	46 percentage of control growth	66 percentage of control growth	62 percentage of control growth	68 percentage of control growth	65 percentage of control growth	51 percentage of control growth
Sorbitol•Ferric Chloride	100 percentage of control growth	107 percentage of control growth	112 percentage of control growth	94 percentage of control growth	55 percentage of control growth	60 percentage of control growth			
